Assay results taken from ChEMBL document CHEMBL4665642, “Anticancer profile of newly synthesized BRAF inhibitors possess 5-(pyrimidin-4-yl)imidazo[2,1-b]thiazole scaffold” (Bioorg Med Chem, 2019).

Experiments:
NCI-H460 = assay: Cytotoxicity against human NCI-H460 cells assessed as cell viability at 10 uM incubated for 48 hrs by sulforhodamine B assay relative to control; type: functional; settings: read-out: Activity
MDA-MB-468 = assay: Cytotoxicity against human MDA-MB-468 cells assessed as cell viability at 10 uM incubated for 48 hrs by sulforhodamine B assay relative to control; type: functional; settings: read-out: Activity
SR = assay: Cytotoxicity against human SR cells assessed as cell viability at 10 uM incubated for 48 hrs by sulforhodamine B assay relative to control; type: functional; settings: read-out: Activity
NCI-H226 = assay: Cytotoxicity against human NCI-H226 cells assessed as cell viability at 10 uM incubated for 48 hrs by sulforhodamine B assay relative to control; type: functional; settings: read-out: Activity
SK-MEL-2 = assay: Cytotoxicity against human SK-MEL-2 cells assessed as cell viability at 10 uM incubated for 48 hrs by sulforhodamine B assay relative to control; type: functional; settings: read-out: Activity
T47D = assay: Cytotoxicity against human T47D cells assessed as cell viability at 10 uM incubated for 48 hrs by sulforhodamine B assay relative to control; type: functional; settings: read-out: Activity
HCT-15 = assay: Cytotoxicity against human HCT-15 cells assessed as cell viability at 10 uM incubated for 48 hrs by sulforhodamine B assay relative to control; type: functional; settings: read-out: Activity
MDA-MB-231 = assay: Cytotoxicity against human MDA-MB-231 cells assessed as cell viability at 10 uM incubated for 48 hrs by sulforhodamine B assay relative to control; type: functional; settings: read-out: Activity
HCT-29 = assay: Cytotoxicity against human […] cells assessed as cell viability at 10 uM incubated for 48 hrs by sulforhodamine B assay relative to control; type: functional; settings: read-out: Activity
SF-539 = assay: Cytotoxicity against human SF-539 cells assessed as cell viability at 10 uM incubated for 48 hrs by sulforhodamine B assay relative to control; type: functional; settings: read-out: Activity
LOX IMVI = assay: Cytotoxicity against human LOX IMVI cells assessed as cell viability at 10 uM incubated for 48 hrs by sulforhodamine B assay relative to control; type: functional; settings: read-out: Activity
HL-60(TB) = assay: Cytotoxicity against human HL-60(TB) cells assessed as cell viability at 10 uM incubated for 48 hrs by sulforhodamine B assay relative to control; type: functional; settings: read-out: Activity
DU-145 = assay: Cytotoxicity against human DU-145 cells assessed as cell viability at 10 uM incubated for 48 hrs by sulforhodamine B assay relative to control; type: functional; settings: read-out: Activity
RXF 393 = assay: Cytotoxicity against human RXF 393 cells assessed as cell viability at 10 uM incubated for 48 hrs by sulforhodamine B assay relative to control; type: functional; settings: read-out: Activity
Hs-578T = assay: Cytotoxicity against human HS-578T cells assessed as cell viability at 10 uM incubated for 48 hrs by sulforhodamine B assay relative to control; type: functional; settings: read-out: Activity
A549 = assay: Cytotoxicity against human A549 cells assessed as cell viability at 10 uM incubated for 48 hrs by sulforhodamine B assay relative to control; type: functional; settings: read-out: Activity
SK-MEL-28 [1] = assay: Cytotoxicity against human SK-MEL-28 cells assessed as cell viability at 10 uM incubated for 48 hrs by sulforhodamine B assay relative to control; type: functional; settings: read-out: Activity
MCF7 = assay: Cytotoxicity against human MCF7 cells assessed as cell viability at 10 uM incubated for 48 hrs by sulforhodamine B assay relative to control; type: functional; settings: read-out: Activity
SK-MEL-28 [2] = assay: Cytotoxicity against human SK-MEL-28 cells assessed as reduction in cell viability by MTT assay; type: functional, cell-based
A-375 = assay: Cytotoxicity against human A-375 cells assessed as reduction in cell viability by MTT assay; type: functional, cell-based

Row | Compound | viability at 10 µM (NCI-H460) | viability at 10 µM (MDA-MB-468) | viability at 10 µM (SR) | viability at 10 µM (NCI-H226) | viability at 10 µM (SK-MEL-2) | viability at 10 µM (T47D) | viability at 10 µM (HCT-15) | viability at 10 µM (MDA-MB-231) | viability at 10 µM (HCT-29) | viability at 10 µM (SF-539) | viability at 10 µM (LOX IMVI) | viability at 10 µM (HL-60(TB)) | viability at 10 µM (DU-145) | viability at 10 µM (RXF 393) | viability at 10 µM (Hs-578T) | viability at 10 µM (A549) | viability at 10 µM (SK-MEL-28 [1]) | viability at 10 µM (MCF7) | IC50 (SK-MEL-28 [2]) | IC50 (A-375)
1 | O=C(NCCCNc1nccc(-c2c(-c3cccc(F)c3)nc3sccn23)n1)C1CCCCC1 | 60% | 74.3% | 70.2% | 63.6% | 78.4% | 37.8% | 58% | 80.6% | 40.1% | 100% | 57.4% | 111% | 92.2% | 94.3% | 80.2% | 51.6% | 84.5% | 36.5% |  | 
2 | O=S(=O)(NCCNc1nccc(-c2c(-c3cccc(F)c3)nc3sccn23)n1)c1cccc(F)c1 | 43% | 68.6% | 45.5% | 62.5% | 81.8% | 49.1% | 38.9% | 79% | 43.9% | 95.6% | 51.2% | 101% | 65.1% | 80.2% | 78.3% | 42.1% | 94.7% | 30.8% | 18.3 µM | 14.9 µM
3 | O=S(=O)(NCCCNc1nccc(-c2c(-c3cccc(F)c3)nc3sccn23)n1)c1cccc(F)c1 | 58.3% | 33% | 64.9% | 23.2% | 47.6% | -2.25% | 22.6% | 75.9% | 30.6% | 86.4% | 39% | 40.5% | 55.5% | 78.8% | 63.7% | 49.3% | 68.3% | 33.7% | 8.55 µM | 13.7 µM
4 | O=S(=O)(NCCCNc1nccc(-c2c(-c3cccc(F)c3)nc3sccn23)n1)c1cccc2ccccc12 | 19.9% | 59.3% | 62% | 36.8% | 47.8% | 18.4% | 18.1% | 4.05% | 1.97% | 72.8% | 20.9% | 53.9% | 49.9% | 62.9% | 55.9% | 45.6% | 77.5% | 37.4% |  | 
5 | O=S(=O)(NCCNc1nccc(-c2c(-c3cccc(F)c3)nc3sccn23)n1)c1ccc(Br)cc1 | 27.8% | 78.3% | 31.7% | 41.2% | 71.7% | 30.5% | 29.2% | 69.7% | 28.2% | 76.4% | 38.5% | 90.5% | 52.5% | 72.7% | 63.6% | 34.1% | 69.1% | 23.5% | 13.5 µM | 13.5 µM
6 | O=S(=O)(NCCNc1nccc(-c2c(-c3cccc(F)c3)nc3sccn23)n1)c1ccc(Cl)cc1 | 30.1% | 64.5% | 40.6% | 49.3% | 79.8% | 43.2% | 31.9% | 91.1% | 36% | 82.5% | 43.6% | 96% | 54.2% | 69% | 72.5% | 32.1% | 74.7% | 24.7% | 18.6 µM | 18.6 µM
7 | O=S(=O)(NCCNc1nccc(-c2c(-c3cccc(F)c3)nc3sccn23)n1)c1cccc2ccccc12 | 97.7% | 86.1% | 88.1% | 94.1% | 104% | 81.7% | 83.6% | 95% | 83.2% | 109% | 95.7% | 116% | 97.8% | 102% | 103% | 88% | 123% | 74.6% |  | 
8 | O=C(NCCNc1nccc(-c2c(-c3cccc(F)c3)nc3sccn23)n1)c1ccc(C(F)(F)F)cc1 | 73.2% | 77.6% | 68.9% | 64.8% | 69% | 43% | 53.1% | 74.7% | 50.2% | 95.7% | 64.8% | 103% | 83.7% | 81.9% | 85.2% | 62.1% | 82.1% | 46.3% | 9.26 µM | 8.71 µM
9 | O=S(=O)(NCCCNc1nccc(-c2c(-c3cccc(F)c3)nc3sccn23)n1)c1ccc(O)cc1 | 52.9% | 60.4% | 52.6% | 64.3% | 81.3% | 48.8% | 43.5% | 83.9% | 41.8% | 99.3% | 61.2% | 107% | 77.4% | 84% | 85.6% | 47.1% | 95.9% | 32.2% |  | 
10 | O=C(NCCCNc1nccc(-c2c(-c3cccc(F)c3)nc3sccn23)n1)c1ccc(C(F)(F)F)cc1 | 92.1% | 76.6% | 86.8% | 78.8% | 98.8% | 62.6% | 54.2% | 89.1% | 53.8% | 104% | 82.6% | 115% | 81.3% | 74.6% | 75.7% | 69% | 96.2% | 69.7% |  | 
11 | O=C(NCCNc1nccc(-c2c(-c3cccc(F)c3)nc3sccn23)n1)C1CCCCC1 | 91.6% | 59.5% | 91% | 60.9% | 60.1% | 30.2% | 61% | 104% | 43.6% | 84.9% | 65.9% | 122% | 81.6% | 78.2% | 91.8% | 78.8% | 106% | 82% |  | 
